Experimental data: patent US20110218188A1, “SUBSTITUTED (PYRIDYL)-AZINYLAMINE DERIVATIVES AS FUNGICIDES” (priority 2008, published 2011)
Marks after values point to notes of the source that are not given here.

Assay: Measurement of logP values by HPLC on reversed phase columns (EEC directive 79/831 Annex V.A8)
Format: physicochemical
Settings: pH 2.3

logP [b] | SMILES
3.13[b] | CCCN(CCC#N)C(=O)c1cc(-c2ncnc(Nc3cccc(Cl)c3)n2)ccn1 [B182]

Same assay, conditions: pH 2.7

chromatographic logP | logP | SMILES
2.05 |  | CON(C)C(=O)c1cc(-c2ncnc(Nc3ccsc3)n2)ccn1 [Example C30, N-methoxy-N-methyl-4-[4-(3-thienylamino)-1,3,5-triazin-2-yl]pyridine-2-carboxamide]
 | 4.11 | CCCCNC(=O)c1cc(-c2ncnc(Nc3cccc(Cl)c3)n2)ccn1 [Example B93]
 | 3.73 | O=C(NCC1CC1)c1cc(-c2ncnc(Nc3cccc(Cl)c3)n2)ccn1 [B99]
 | 2.05 | COCCN(C)C(=O)c1cc(-c2ncnc(Nc3cccc(COC)c3)n2)ccn1 [Example B247]
 | 3.06 | CCN(CC)C(=O)c1cc(-c2ncnc(Nc3cccc(Cl)c3)n2)ccn1 [Example B130]
 | 2.51 | CCCN(CC)C(=O)c1cc(-c2ccnc(Nc3ccnc(Cl)c3)n2)ccn1 [Example A26]
 | 3.29 | CC(C)N(C)C(=S)c1cc(-c2ncnc(Nc3ccc(F)c(C(F)F)c3)n2)ccn1 [Example B329]
 | 3.7 | CCN(C)C(=S)c1cc(-c2ncnc(Nc3cccc(C(C)C)c3)n2)ccn1 [Example B259]
 | 2.47 | CCC(C)N(C)C(=O)c1cc(-c2ccnc(Nc3ccnc(Cl)c3)n2)ccn1 (stereo not drawn) [Example A29]
 | 4.94 | CC(=NOCC1CC1)c1cc(-c2ncnc(Nc3cccc(Cl)c3)n2)ccn1 (mixture of isomers) [Example B34]
 | 4.81 | CCC(=NOC)c1cc(-c2ncnc(Nc3cccc(Cl)c3)n2)ccn1 (mixture of isomers) [Example B85]
 | 3.21 | COCC(C)NC(=O)c1cc(-c2ncnc(Nc3cccc(Cl)c3)n2)ccn1 (stereo not drawn) [B51]
 | 2.68 | CCN(C)C(=S)c1cc(-c2ncnc(Nc3ccsc3)n2)ccn1 [Example C23]
 | 3.46 | O=C(c1cc(-c2ncnc(Nc3cccc(Cl)c3)n2)ccn1)N1CCCCCC1 [Example B138]
 | 3.02 | CC(C)N(C)C(=O)c1cc(-c2ncnc(Nc3ccc(F)c(Cl)c3)n2)ccn1 [B208]
 | 2.92 | CC1CN(C(=O)c2cc(-c3ncnc(Nc4cccc(Cl)c4)n3)ccn2)CC(C)O1 (stereo not drawn) [B154]
 | 1.89 | CN(CCC#N)C(=O)c1cc(-c2ncnc(Nc3ccsc3)n2)ccn1 [Example C12]
 | 2.98 | O=C(c1cc(-c2ncnc(Nc3cccc(Cl)c3)n2)ccn1)N1CCSCC1 [B176]
 | 2.1 | CN(C)C(=O)c1cc(-c2ncnc(Nc3cc(F)ccc3F)n2)ccn1 [Example B354]
 | 2.8 | CN(CCC#N)C(=O)c1cc(-c2ncnc(Nc3cccc(OC(F)(F)F)c3)n2)ccn1 [Example B262]
 | 2.57 | CCON(C)C(=O)c1cc(-c2ncnc(Nc3cccc(C(F)F)c3)n2)ccn1 [B415]
 | 5.64 | CC(=NOC(C1CC1)C1CC1)c1cc(-c2ncnc(Nc3cccc(Cl)c3)n2)ccn1 (mixture of isomers) [Example B48]

chromatographic logP | logP | SMILES
 | 6.19 | CCC(=NOCC(C)C)c1cc(-c2ncnc(Nc3cccc(Cl)c3)n2)ccn1 (mixture of isomers) [B65]
 | 3.67 | CC(C)=CCN(C)C(=O)c1cc(-c2ncnc(Nc3cccc(Cl)c3)n2)ccn1 [Example B148]
 | 3.44 | Cc1ccc(Nc2ncnc(-c3ccnc(C(=O)NCCCN4CCCCCC4=O)c3)n2)cc1Cl [B228]
 | 2.13 | CC(C)N(C)C(=O)c1cc(-c2ccnc(Nc3ccnc(Cl)c3)n2)ccn1 [Example A28]
 | 3.17 | CCN(C)C(=S)c1cc(-c2ncnc(Nc3cccc(SC)c3)n2)ccn1 [Example B223]
 | 1.69 | O=C(c1cc(-c2ccnc(Nc3ccnc(Cl)c3)n2)ccn1)N1CCOCC1 [Example A22]
 | 2.66 | COCc1cccc(Nc2ncnc(-c3ccnc(C(=O)N(C)CC(C)C)c3)n2)c1 [Example B244]
 | 2.66 | CC(C)=CCN(C)C(=O)c1cc(-c2ccnc(Nc3ccnc(Cl)c3)n2)ccn1 [Example A30]
 | 2.37 | CN(CCC#N)C(=O)c1cc(-c2ncnc(Nc3cccc(OC(F)F)c3)n2)ccn1 [Example B297]
 | 2.66 | O=C(NC1CCS(=O)(=O)C1)c1cc(-c2ncnc(Nc3cccc(Cl)c3)n2)ccn1 (stereo not drawn) [B101]
 | 5.16 | CCCC#CCON=C(C)c1cc(-c2ncnc(Nc3cccc(Cl)c3)n2)ccn1 (mixture of isomers) [B35]
 | 2.27 | CNN=C(C)c1cc(-c2ncnc(Nc3cccc(Cl)c3)n2)ccn1 [Example B75]
 | 2.39 | CCN(C)C(=O)c1cc(-c2ncnc(Nc3cc(F)ccc3F)n2)ccn1 [Example B358]
 | 2.48 | CCCN(C)C(=O)c1cc(-c2ncnc(Nc3cccc(COC)c3)n2)ccn1 [Example B241]
 | 3.76 | CN(CC1CC1)C(=S)c1cc(-c2ncnc(Nc3cccc(Cl)c3)n2)ccn1 [Example B330]
 | 3.62 | CCCNC(=O)c1cc(-c2ncnc(Nc3cccc(Cl)c3)n2)ccn1 [B103]
 | 3 | O=C(c1cc(-c2ncnc(Nc3ccc(F)c(Cl)c3)n2)ccn1)N1CCCC1 [B190]
 | 3.15 | CC(C)CN(C)C(=O)c1cc(-c2ncnc(Nc3cccc(OC(F)F)c3)n2)ccn1 [Example B301]
 | 1.98 | O=C(O)c1cc(-c2ncnc(Nc3cccc(C(F)F)c3)n2)ccn1 [B407]
 | 1.94 | CC(=O)Nc1cccc(Nc2ncnc(-c3ccnc(C(=O)N(C)CC4CC4)c3)n2)c1 [B306]
 | 2.2 | O=C(c1cc(-c2ncnc(Nc3cccc(Cl)c3)n2)ccn1)N1CCCC(O)C1 (stereo not drawn) [Example B140]
 | 2.58 | COCc1cccc(Nc2ncnc(-c3ccnc(C(=O)N(C)CC4CC4)c3)n2)c1 [Example B242]

chromatographic logP | logP | SMILES
 | 1.9 | CCN(CC)CC(C)NC(=O)c1cc(-c2ncnc(Nc3cccc(Cl)c3)n2)ccn1 (stereo not drawn) [Example B114]
 | 2.79 | COC(=O)c1cc(-c2ncnc(Nc3cccc(Cl)c3)n2)ccn1 [Example B25]
 | 3.58 | CC(C)CN(C)C(=O)c1cc(-c2ncnc(Nc3ccc(Cl)c(C(F)F)c3)n2)ccn1 [Example B388]
 | 2.77 | C#CCN(c1cccc(Cl)c1)c1ncnc(-c2ccnc(C(=O)N(C)CCC#N)c2)n1 [B403]
 | 2.58 | CN(CCC#N)C(=O)c1cc(-c2ncnc(Nc3ccc(F)c(Cl)c3)n2)ccn1 [Example B201]
 | 5.79 | CC(=NOC1CCCC1)c1cc(-c2ncnc(Nc3cccc(Cl)c3)n2)ccn1 (mixture of isomers) [Example B38]
 | 2.37 | CN(CCC#N)C(=O)c1cc(-c2ncnc(Nc3ccc(F)c(C(F)F)c3)n2)ccn1 [Example B397]
 | 4.58 | CC(=NOCC(F)(F)F)c1cc(-c2ncnc(Nc3cccc(Cl)c3)n2)ccn1 (mixture of isomers) [B73]
 | 3.8 | CCCC(=O)O/N=C(/N)c1cc(-c2ncnc(Nc3cccc(Cl)c3)n2)ccn1 [B106]
 | 3.02 | CN(CCC#N)C(=S)c1cc(-c2ncnc(Nc3cccc(Cl)c3)n2)ccn1 [Example B343]
 | 2.25 | CN(C)C(=O)c1cc(-c2ncnc(Nc3ccc(F)c(F)c3)n2)ccn1 [Example B377]
 | 2.90 | COc1cccc(Nc2ncnc(-c3ccnc(C(=O)N(C)CC(C)C)c3)n2)c1 [Example B277]
1.19 |  | CCN(C)C(=O)c1cc(Nc2nccc(-c3ccnc(C(=O)N(C)CC)c3)n2)ccn1 [Example A19, N-ethyl-4-[2-({2-[ethyl(methyl)carbamoyl]pyridin-4-yl}amino)pyrimidin-4-yl]-N-methylpyridine-2-carboxamide]
 | 4.13 | CCCN(C(=O)c1cc(-c2ncnc(Nc3cccc(Cl)c3)n2)ccn1)C(C)CC (stereo not drawn) [Example B171]
 | 2.75 | COCCN(C)C(=O)c1cc(-c2ncnc(Nc3cccc(C(F)(F)F)c3)n2)ccn1 [Example B361]
 | 1.5 | CN1CCN(C(=O)c2cc(-c3ncnc(Nc4cccc(Cl)c4)n3)ccn2)CC1 [Example B184]
 | 3.15 | CSc1cccc(Nc2ncnc(-c3ccnc(C(=O)NC4CC4)c3)n2)c1 [B213]
 | 5.81 | CCCC#CCON=C(CC)c1cc(-c2ncnc(Nc3cccc(Cl)c3)n2)ccn1 (mixture of isomers) [Example B46]
 | 2.1 | CC(=O)Nc1cccc(Nc2ncnc(-c3ccnc(C(=O)N(C)CC(C)C)c3)n2)c1 [Example B308]
 | 2.11 | COc1cccc(Nc2ncnc(-c3ccnc(C(=O)N(C)CCC#N)c3)n2)c1 [Example B272]
 | 3.73 | CC(C)NC(=O)c1cc(-c2ncnc(Nc3ccc(F)c(Cl)c3)n2)ccn1 [B196]
 | 3.73 | CSc1cccc(Nc2ncnc(-c3ccnc(C(=O)NC4CCC4)c3)n2)c1 [B220]

SMILES | chromatographic logP | logP
CCN(CC)C(=O)c1cc(-c2ncnc(Nc3cccc(C(F)F)c3)n2)ccn1 [Example B285] |  | 2.73
CN(CCC#N)C(=O)c1cc(-c2ncnc(Nc3ccc(Cl)c(C(F)F)c3)n2)ccn1 [Example B389] |  | 2.69
COc1ccc(Nc2ncnc(-c3ccnc(C(=O)N(C)CC(C)C)c3)n2)cn1 [Example C9] |  | 2.37
CCCN(C)C(=O)c1cc(-c2ncnc(Nc3cccc(Cl)c3)n2)ccn1 [Example B132] |  | 3.06
CN(CC1CC1)C(=O)c1cc(-c2ncnc(Nc3cccc(C(F)F)c3)n2)ccn1 [Example B287] |  | 2.82
CCCN(CC)C(=O)c1cc(-c2ncnc(Nc3cccc(Cl)c3)n2)ccn1 [Example B125] |  | 3.46
CCCCN(CCC)C(=O)c1cc(-c2ncnc(Nc3cccc(Cl)c3)n2)ccn1 [Example B126] |  | 4.31
O=C(c1cc(-c2ncnc(Nc3cccc(Cl)c3)n2)ccn1)N1CCOCC1 [Example B116] |  | 2.39
CCCN(CCC)C(=O)c1cc(-c2ncnc(Nc3cccc(Cl)c3)n2)ccn1 [Example B124] |  | 3.89
CCN(CC)C(=O)c1cc(-c2ncnc(Nc3ccc(F)c(C(F)F)c3)n2)ccn1 [Example B353] |  | 2.86
CN(CC1CC1)C(=O)c1cc(-c2ncnc(Nc3cccc(Cl)c3)n2)ccn1 [Example B133] |  | 3.15
CCN(C)C(=O)c1cc(-c2ncnc(Nc3ccc(F)c(C(F)F)c3)n2)ccn1 [Example B394] |  | 2.55

Same assay, conditions: pH 7.8

logP | SMILES
2.11^[c] | CCN(CC)C(=O)c1cc(-c2ncnc(Nc3ccc(OC)nc3)n2)ccn1 [Example C4]
2.04^[c] | NC(=O)c1cc(-c2ncnc(Nc3cccc(C(F)F)c3)n2)ccn1 [B405]
